This is an account of results in patent publication US20190297885A1 (Dow Global Technologies LLC, priority 2016, published 2019).

What is called inhibition is the percentage by which the read-out fell short of the control.

The subject of the experiment is Chlorella sp. ATCC 7516. As to the kind of experiment: Algal efficacy testing of dry paint films (modified ASTM 5589, 6-well plates). The settings on record: 504 h. It counts as cell-based. The method, then:
These paints were then diluted with a biocide free acrylic/silicone based paint and mixed to prepare targeted concentrations of biocide combinations for the testing. The total biocides concentrations obtained were 125, 250, 500, 1000, 2000 and 5000 ppm. After biocides addition or dilution, the paints were mixed 90 seconds with the horse power shaker (AXEL 75M3372/Agitateur SO-10MI) until uniformity was achieved. […] After one day, the paints were applied to Schleicher & Schuell filter paper at 280 μm wet film thickness and dried for 3 days at room temperature avoiding direct exposure to sunlight. Square discs (1.8 cm×1.8 cm) were cut out from each panel and were used as the substrate for algal efficacy tests. This sample size allowed for an agar border when the sample disc was placed into the well of the test plate.
Algal efficacy was tested according to modified ASTM 5589 which is a standard accelerated test method for determining resistance of various coatings (including paints) to algal defacement. To accommodate for high-throughput screening, this method was scaled down from petri plates to 6-well plates. […]
At the end of the incubation period the samples were scored for percent inhibition regarding color intensity compared to the blank sample
The SI is calculated based on F. C. […]

With `N#Cc1c(Cl)c(Cl)c(Cl)c(C#N)c1Cl` [Chlorothalonil, 2,4,5,6-tetrachloroisophthalonitrile], the inhibition at 10000 ppm (Total conc 10,000 ppm in paint, three weeks, color intensity vs blank, pass level 75%) was found to be 15%.
Consider `O=c1[nH]c2c(c(=O)n1C1CCCCC1)CCC2` [Lenacil, 3-Cyclohexyl-6,7-dihydro-1H-cyclopentapyrimidine-2,4-(3H,5H)-dione], for which the inhibition at 1000 ppm worked out at 90%.
